Data reported in paper PMC8341802 (RSC Chemical Biology, 2021).
pIC50: −log10 of the molar value.

Target: APOBEC3A (A3A) (Homo sapiens, UniProt P31941)
Format: biochemical

Chain of APOBEC3A (A3A) (P31941 whole entry): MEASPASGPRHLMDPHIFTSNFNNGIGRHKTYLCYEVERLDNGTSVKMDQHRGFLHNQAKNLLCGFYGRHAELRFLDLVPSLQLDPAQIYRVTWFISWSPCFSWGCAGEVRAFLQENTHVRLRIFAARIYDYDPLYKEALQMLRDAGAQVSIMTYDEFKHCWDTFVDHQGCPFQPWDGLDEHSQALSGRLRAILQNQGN

pIC50: 4.39
SMILES: O=C(O)C1=CC(=C(c2ccc(O)c(C(=O)O)c2)c2ccc(O)c(C(=O)O)c2)C=CC1=O [MN1, aurintricarboxylic acid]
